{
  "source": "patent US6509010B2",
  "about": "“Cosmetic products for the reduction of sweat acidity” (Unilever Home & Personal Care USA, division of Conopco, Inc., priority 2001, dated 2003)",
  "key": {"V-ATPase": {"tested_on": "V-ATPase", "sequence (P27449 whole entry, the tested form may be a part)": "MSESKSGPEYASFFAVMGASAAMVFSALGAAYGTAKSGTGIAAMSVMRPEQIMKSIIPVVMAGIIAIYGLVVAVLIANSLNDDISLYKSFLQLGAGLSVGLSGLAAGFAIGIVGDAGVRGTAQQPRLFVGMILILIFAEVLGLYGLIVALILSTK", "test": "Proton transfer inhibition: intracellular pH recovery after ammonium chloride pulse in isolated, microperfused human eccrine sweat reabsorptive ducts (BCECF-type probe)", "assay_type": "cell-based", "details": "for Inhibition of proton transfer out of the cells of the reabsorptive duct: significant at the 95% level (Student t-test); for Rate of pH recovery (%): control = 100, after 20 mM basolateral ammonium chloride pulse, 37° C.", "protocol": "Human eccrine sweat ducts were isolated using the Kealey shearing technique (Lee C. M., Jones C. J., and Kealey T., J. Cell. Sci., 72, 1984, 259-274). Isolated portions of reabsorptive duct were mounted on a conventional microperfusion apparatus, between glass pipettes. One end of the duct was cannulated with a microperfusion pipette. The ducts were perfused at 37° C. with a control solution containing N-methyl-D-glucamine chloride (114 mM), potassium hydrogenphosphate (2.5 mM), magnesium chloride (1 mM), calcium chloride (1 mM), glucose (5 mM), and N-methyl-D-glucamine lactate (4 mM). Osmolality was adjusted to 300 mOsm/kg with mannitol and the pH adjusted to 7.4 with tris-HEPES. Intracellular pH was measured using the pH sensitive fluorescent probe BCEFC (bis-2-carboxyethyl-carbfluorescein) at 5 μM.\n[…].\nIn the next part of the procedure, the indicated sweat ducts were subjected to acidification by a 20 mM basolateral pulse of ammonium chloride, with the additional presence of a V-ATPase inhibitor."}, "[1]": {"tested_on": "Staphylococcus epidermidis", "details": "80% or greater reduction in growth over 16 to 24 hours at 37° C., cited from earlier work"}},
  "note": "Where two headings read alike, the source gives them in different places.",
  "data": [
    {"molecule": "CO/C1=C\\C(C)=C\\[C@@H](C)[C@@H](O)[C@@H](C)C/C(C)=C/C=C/[C@H](OC)[C@@H]([C@@H](C)[C@@H](O)[C@H](C)[C@@]2(O)C[C@@H](O)[C@H](C)[C@@H](C(C)C)O2)OC1=O", "note": "[Bafilomycin-A1, bafilomycin A1]", "values": [
      {"measurement": "Inhibition of proton transfer out of the cells of the reabsorptive duct", "setting": "V-ATPase; at 6.2 μg/ml", "result": "inhibit proton transfer"},
      {"measurement": "Rate of pH recovery (%)", "setting": "V-ATPase; inhibitor at 6.2 μg/ml", "result": 27, "unit": "%"}
    ]},
    {"molecule": "olygomycin", "values": [
      {"measurement": "Inhibition of proton transfer out of the cells of the reabsorptive duct", "setting": "V-ATPase; at 20 μg/ml", "result": "inhibit proton transfer"},
      {"measurement": "Rate of pH recovery (%)", "setting": "V-ATPase; inhibitor at 20 μg/ml", "result": 12, "unit": "%"}
    ]},
    {"molecule": "Oc1cc(Cl)ccc1Oc1ccc(Cl)cc1Cl", "note": "[triclosan, 2′,4,4′-trichloro,2-hydroxy-diphenyl ether]", "values": [
      {"measurement": "MIC", "setting": "[1]; literature values", "result": "0.01 to 10", "unit": "µg/mL"}
    ]},
    {"molecule": "CCO", "note": "[ethanol]", "values": [
      {"measurement": "MIC", "setting": "[1]; stated without source", "result": "greater than 1 mg.ml^−1"}
    ]},
    {"molecule": "CC(C)=CCCC(C)=CCCC(C)=CCO", "note": "[farnesol, 3,7,11-trimethyldodeca-2,6,10-trienol]", "values": [
      {"measurement": "MIC", "setting": "[1]; literature values", "result": "ca. 25 μg.ml^−1"}
    ]},
    {"molecule": "C/C=C/[C@H]1O[C@@](O)([C@@H](C)[C@H](O)[C@H](C)[C@H]2OC(=O)/C(OC)=C/C(C)=C/[C@@H](C)[C@@H](O)[C@@H](CC)[C@@H](O)[C@H](C)C/C(C)=C/C=C/[C@@H]2OC)C[C@@H](O[C@H]2C[C@@H](O)[C@H](OC(N)=O)[C@@H](C)O2)[C@@H]1C", "note": "[Concanamycin-A, concanamycin A]", "values": [
      {"measurement": "Inhibition of proton transfer out of the cells of the reabsorptive duct", "setting": "V-ATPase; at 0.1 μg/ml", "result": "inhibit proton transfer"},
      {"measurement": "Rate of pH recovery (%)", "setting": "V-ATPase; inhibitor at 0.1 μg/ml", "result": 5, "unit": "%"}
    ]}
  ]
}
